Test results published in patent EP2782585B1, “ANTIVIRAL FORMULATIONS” (3B Pharmaceuticals, Inc., priority 2011, dated 2013).

Experiments:
[1] = test system: HSV-2; assay: In vitro assay for anti-HSV-2 mRNA activity (QuantiGene Plex 2.0 bDNA) in infected primary endothelial cells; assay type: cell-based, HSV type 2; conditions: best-fit value, primary Adult Human Dermal Microvascular Endothelial Cells, overnight incubation; for IC50: Human alphaherpesvirus 2, Endothelial cell, HSV-2 mRNA; for LogIC50 / HillSlope: variable slope fit; for LogIC50: concentrations in µM
Method: (§1) In vitro assays for anti-HSV-1 and anti-HSV-2 mRNA activity are described in Example 1. Confluent Vero cell monolayers were infected with HSV type 1 or HSV type 2 at a multiplicity of infection of 10 and the resultant virus was used to infect primary Adult Human Dermal Microvascular Endothelial Cells for 1 hour; the supernatant was replaced with fresh culture media and then incubated overnight in the presence of various concentrations of acyclovir, 2-deoxy-D-glucose or an equimolar combination of the two compounds. After overnight incubation, the cells were harvested, lysed, and subjected to QuantiGene Plex 2.0 assay (Panomics, Inc., Fremont, CA) for quantitative assay of HSV-1 and HSV-2 mRNA. The QuantiGene Plex 2.0 assay combines branched DNA (bDNA) signal amplification and multi-analyte profiling beads (xMAP®) technologies to enable the detection and quantitation of multiple mRNA targets simultaneously. Briefly, confluent Vero cell monolayers were infected with HSV type 1 or HSV type 2 at a multiplicity of infection of 10 and the resultant virus was used to infect primary Adult Human Dermal Microvascular Endothelial Cells for 1 hour and then the supernatant was replaced with fresh culture media and then incubated overnight in the presence of various concentrations of acyclovir, 2-deoxy-D-glucose or an equimolar combination of the two compounds. Generally, this assay is considered to be a more sensitive and specific assay (bDNA) for the final readout when compared to an ELISA. The ELISA method while easier, can lack specificity to determine the difference between HSV1 and HSV2. The bDNA assay is a hybridization-based method of target-specific RNA quantitation that amplifies signal rather than target RNA, using labeled DNA probes. The QuantiGene Plex 2.0 system utilizes fluorescent microspheres (Capture Beads) as a support to capture specific RNA molecules. The ability to quantify multiple target-specific RNA molecules in a single sample lies in the design of the Probe Sets. For each RNA molecule of interest, an oligonucleotide Probe Set containing three types of synthetic probes, Capture Extenders (CEs), Label Extenders (LEs), and Blockers (BLs) that hybridize and span contiguous sequences of the target RNA, is provided. The CEs discriminate among the different Capture Beads within the bead array while capturing, via cooperative hybridization, the target RNA. Signal amplification is mediated by DNA amplification molecules that hybridize to the tails of the LEs. Each amplification unit contains multiple hybridization sites for biotinylated Label Probes that bind Streptavidin-conjugated R-Phycoerythrin (SAPE). The resulting fluorescence signal associated with individual Capture Beads is read on a Luminex flow cytometer. Signal is reported as median fluorescence intensity (MFI) and is proportional to the number of target RNA molecules present in the sample. All compounds were run in triplicate for each concentration. Concentrations are expressed in micromolar (µM) concentrations. The IC50 (the drug concentration that reduces the number of virally infected cells by 50%) were determined by plotting the reduction in fluorescence (RLU) versus the drug concentration using Graph Pad Prism software. Specifically, the variable slope model was used to calculate the IC50s with the formula "Y=Bottom + (Top-Bottom)/(1+10^((LogIC50-X)*HillSlope))" using Graph Pad Prism software. The data is shown graphically in Figures 1 and 2. The error bars represent the standard error of the mean (SEM). Table 1. IC50 of Acyclovir and/or 2-Deoxy-D-glucose against HSV-1. […]

[2] = test system: HSV-1; assay: In vitro assay for anti-HSV-1 mRNA activity (QuantiGene Plex 2.0 bDNA) in infected primary endothelial cells; assay type: cell-based, HSV type 1; conditions: best-fit value, primary Adult Human Dermal Microvascular Endothelial Cells, overnight incubation; for IC50: Human alphaherpesvirus 1, Endothelial cell, HSV-1 mRNA; for LogIC50 / HillSlope: variable slope fit; for LogIC50: concentrations in µM
Method: as §1

[3] = local application compared with oral; cited from earlier work

| Structure (SMILES) | IC50 [1] [µM] | LogIC50 [1] | HillSlope [1] | IC50 [2] [µM] | LogIC50 [2] | HillSlope [2] | drug concentration in the skin after local application versus given orally [3] |
| --- | --- | --- | --- | --- | --- | --- | --- |
| O=CC[C@@H](O)[C@H](O)[C@H](O)CO [2 Deoxy D glucose, 2-deoxy-D-glucose] | 8 | 0.9029 | -3.957 | 20.9 | 1.32 | -2.395 |  |
| Nc1nc2c(ncn2COCCO)c(=O)[nH]1 [Acyclovir, 9-(2-hydroxyethoxymethyl)guanine] | 1.91 | 0.2805 | -1.113 | 1.78 | 0.2509 | -1.108 | 2-3 times lower |
